Among the data in paper PMC10819171, “Development of Pleiotropic TrkB and 5-HT4 Receptor Ligands as Neuroprotective Agents” (Molecules, 2024) are inhibition, Emax and Ki values, retold here.

As a reminder, the Ki is a dissociation constant, usually derived from enzyme kinetics or from competition with a known ligand.

Test [1] concerns the target T1, 5-HT4 receptor (Homo sapiens, UniProt Q13639).
T1 construct: gene HTR4
Kind of test: [3H]-GR113808 radioligand displacement at two concentrations; partial agonist reference in cAMP assay. In kind it is binding. Conditions: read-out: 5-HT4R (1 × 10^-6 M).

Test [2] addresses T2, HA-tagged human 5-HT4 receptor (Homo sapiens, UniProt Q13639).
T2 construct: gene HTR4; HA-tagged, transiently expressed in COS-7 cells
Put plainly: cell-based. Conditions: COS-7; read-out: Top AMPc. More on the design: cAMP production by HTRF in transiently transfected COS-7 cells, 10 min, with RO-20-1724. As to the method: COS-7 cells were purchased from ATCC (ATCC CRL-1651; LGC […], Molsheim, France). They were grown in Dulbecco’s modified Eagle medium (DMEM) supplemented with 10% dialyzed fetal calf serum (dFCS) and antibiotics. The cells were transiently transfected with the plasmid encoding HA-tagged human 5-HT4 receptor, then seeded in 96-wells plate (35,000 cells/well). Approximately 24 hrs after transfection, the cells were washed once with 200 µL of HBS (20 mM HEPES; 150 mM NaCl; 4.2 mM KCl; 0.9 mM CaCl2; 0.5 mM MgCl2; 0.1% glucose; 0.1% BSA) and, after HBS removal, exposed to the indicated concentrations of 5-HT4R ligands in the presence of 0.1 mM of the phosphodiesterase inhibitor RO-20-1724, at 37 °C in 100 µL of HBS. After 10 min, the cells were then lysed by the addition of the same volume of Triton-X100 (0.1%) during 30 min at 37 °C. Quantification of the cAMP production was performed by HTRF by using the cAMP—HTRF Gs Dynamic kit (Perkin Elmer, Codolet, France) according to the manufacturer’s instructions. 2.2.4.

In test [3] the target is T1, 5-HT4 receptor. Kind of test: [3H]-GR113808 radioligand displacement at two concentrations. In kind it is binding. Conditions: read-out: 5-HT4R (1 × 10^-6 M). In general terms: In a radioligand displacement assay an active substance lowers the binding of a labelled ligand.
Test [4] deals with T1, 5-HT4 receptor. Put plainly: [3H]-GR113808 radioligand competition, five-point inhibition curves; partial agonist in cAMP HTRF assay. In kind it is binding.

T1 sequence (Q13639 whole entry): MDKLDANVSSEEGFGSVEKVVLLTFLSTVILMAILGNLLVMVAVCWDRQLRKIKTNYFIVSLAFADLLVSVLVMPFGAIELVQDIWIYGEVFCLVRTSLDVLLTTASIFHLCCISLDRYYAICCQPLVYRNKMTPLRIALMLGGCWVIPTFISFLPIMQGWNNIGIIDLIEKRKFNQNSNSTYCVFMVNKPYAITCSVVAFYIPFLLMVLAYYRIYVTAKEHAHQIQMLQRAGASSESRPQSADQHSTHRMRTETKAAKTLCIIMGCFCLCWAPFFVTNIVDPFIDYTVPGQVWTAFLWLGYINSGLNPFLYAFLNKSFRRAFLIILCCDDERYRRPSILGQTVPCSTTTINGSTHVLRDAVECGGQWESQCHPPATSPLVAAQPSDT
T2 sequence (Q13639 whole entry): as above

Take `CCCCN1CCC(CCC(=O)c2cc(Cl)c(N)cc2OC)CC1` [RS67333]: the inhibition at 1 µM at 5-HT4 receptor [1] worked out at 100%. Further, the Emax in test [2] came out at 68%.

With `COc1cc(N)c(Cl)cc1C(=O)CCC1CCN(CCOCCNC(=O)c2cc(C(=O)NCCO)cc(C(=O)NCCO)c2)CC1` [compound 19, N^1-(2-(2-(4-(3-(4-amino-5-chloro-2-methoxyphenyl)-3-oxopropyl)piperidin-1-yl)ethoxy)ethyl)-N^3,N^5-bis(2-hydroxyethyl)benzene-1,3,5-tricarboxamide], the inhibition at 1 µM on 5-HT4 receptor [3] was found to be 55%.

For `COc1cc(N)c(Cl)cc1C(=O)CCC1CCN(CCNC(=O)c2cc(C(=O)NCCO)cc(C(=O)NCCO)c2)CC1` [compound 8, N^1-(2-{4-[3-(4-amino-5-chloro-2-methoxyphenyl)-3-oxopropyl]piperidin-1-yl}ethyl)-N^3,N^5-bis(2-hydroxyethyl)benzene-1,3,5-tricarboxamide], affinity on 5-HT4 receptor [4] was put at a Ki of 0.0426 ± 0.0041 µM. Further, the Emax in test [2] worked out at 48%.

As for `COc1cc(N)c(Cl)cc1C(=O)CCC1CCN(CCCNC(=O)c2cc(C(=O)NCCO)cc(C(=O)NCCO)c2)CC1` [compound 13, N^1-(3-(4-(3-(4-amino-5-chloro-2-methoxyphenyl)-3-oxopropyl)piperidin-1-yl)propyl)-N^3,N^5-bis(2-hydroxyethyl)benzene-1,3,5-tricarboxamide], the inhibition at 1 µM at 5-HT4 receptor [3] worked out at 82%.
